From US8541617B2, “Cycloalkylphenyl substituted cyclic ketoenols” (Bayer Cropscience AG, priority 2006, dated 2013)

What was measured:
Summer wheat = test: Example C: Herbicidal post-emergence action, use of safeners (crop plant damage); format: in vivo; settings: for Summer wheat observed (%): no safener; for Summer wheat observed (%), 10 days after application / Summer wheat observed (%), 28 days after application: greenhouse container trial;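 on Summer wheat observed (%), 10 days after application: 100% means plants died and 0% means like untreated controls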;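 on Summer wheat observed (%), 28 days after application: 100% means plants died and 0% means like untreated controls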
Protocol: (§1) Herbicidal Post-Emergence Action
(§2) Seeds of monocotylos and dicotylos weed and crop plants are placed into sandy lawn in wood fibre pots or in plastic pots, covered with soil and cultivated in a greenhouse, during the vegetation period also outdoors outside of the greenhouse, under good growth conditions. Two to three weeks after sowing, the test plants are treated at the one- to three-leaf stage. The test compounds, formulated as wettable powders (WP) or liquid (EC), are, in the various dosages at a water application rate of 300 l/ha (converted), with wetting agent (0.2 to 0.3%) added, sprayed onto the plants and the surface of the soil. […]
(§3) If it is additionally to be tested as to whether safeners can improve the plant compatibility of test substances in the case of crop plants, the following options are used for applying the safener: • seeds of the crop plants are, before sowing, dressed with safener substance (the amount of safener stated in percent, based on the weight of the seed) • before the application of the test substances, the crop plants are sprayed with the safener at a certain application rate per hectare (usually 1 day before the application of the test substances) • the safener is applied together with the test substance as a tank mix (the amount of safener is stated in g/ha or as a ratio, based on the herbicide).
(§4) By comparing the effect of test substances on crop plants without or with safener treatment, it is possible to assess the effect of the safener substance.
(§5) Container trials in the greenhouse, treatment with safener 1 day prior to herbicide application

Summer barley = test: as above; format: in vivo; settings: for Summer barley observed (%): no safener; for Summer barley observed (%), 10 days after application / Summer barley observed (%), 28 days after application: greenhouse container trial;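 on Summer barley observed (%), 10 days after application: 100% means plants died and 0% means like untreated controls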;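 on Summer barley observed (%), 28 days after application: 100% means plants died and 0% means like untreated controls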
Protocol: as §1, §2, §3, §4, §5

[1] = logP determination by HPLC on a reverse-phase column (C 18), EEC Directive 79/831 Annex V.A8; format: physicochemical; settings: HPLC reverse-phase C 18, 43° C., acidic range (pH 2.3), 0.1% aqueous phosphoric acid/acetonitrile
Protocol: The logP values given in the table were determined in accordance with EEC Directive 79/831 Annex V.A8 by HPLC (High Performance Liquid Chromatography) on a reverse-phase column (C 18). Temperature: 43° C.
Mobile phases for the determination in the acidic range (pH 2.3): 0.1% aqueous phosphoric acid, acetonitrile; linear gradient from 10% acetonitrile to 90% acetonitrile.
Calibration was carried out using unbranched alkan-2-ones (having 3 to 16 carbon atoms) with known logP values (determination of the logP values by retention times using linear interpolation between two successive alkanones).

[2] = test system: cotton aphid (Aphis gossypii); test: Example N: Aphis gossypii test, with ammonium/phosphonium salts and penetrants; format: in vivo; settings: 20 ppm
Protocol: Solvent: 7 parts by weight of dimethylformamide
Emulsifier: 2 parts by weight of alkylaryl polyglycol ether
To produce a suitable preparation of active compound, 1 part by weight of active compound is mixed with the stated amounts of solvent and emulsifier and the concentrate is diluted with emulsifier-containing water to the desired concentration. For the application with penetrants (rapeseed oil methyl ester 500 EW), ammonium or phosphonium salts or ammonium salts and penetrants (rapeseed oil methyl ester 500 EW), these are in each case added in a concentration of 1000 ppm to the spray liquor.
Cotton plants (Gossypium hirsutum) which are heavily infested by the cotton aphid (Aphis gossypii) are treated by being sprayed to run off point with the preparation of active compound at the desired concentration.
After the desired period of time, the kill in % is determined. 100% means that all aphids have been killed; 0% means that none of the aphids have been killed.
In this test, for example, the following compounds of the Preparation Examples show good efficacy: see table

[3] = 10 days after application, 12.5 g of a.i./ha
[4] = 10 days after application, 25 g of a.i./ha
[5] = 28 days after application, 12.5 g of a.i./ha
[6] = 28 days after application, 25 g of a.i./ha
[7] = 28 days after application, 50 g of a.i./ha
[8] = 10 days after application, 50 g of a.i./ha
[9] = 10 days after application, 100 g of a.i./ha
[10] = 28 days after application, 100 g of a.i./ha

Which results are given for `CCOC(=O)OC1=C(c2c(C)cc(C)cc2C2CC2)C(=O)NC12CCC(OC)CC2` (single isomer, unassigned) [Example I-1-c-7]?
Summer wheat observed (%) (Summer wheat; [3]): 20%; Summer wheat observed (%) (Summer wheat; [4]): 60%; Summer wheat observed (%) (Summer wheat; [5]): 10%; Summer wheat observed (%) (Summer wheat; [6]): 20%; Summer wheat observed (%) (Summer wheat; [7]): 80%; Summer barley observed (%) (Summer barley; [3]): 10%; Summer barley observed (%) (Summer barley; [4]): 40%; Summer barley observed (%) (Summer barley; [8]): 60%; Summer barley observed (%) (Summer barley; [9]): 90%; Summer barley observed (%) (Summer barley; [7]): 50%; Summer barley observed (%) (Summer barley; [10]): 95%

Which logP [1] does the source give for `COC1CCC2(CC1)OC(=O)C(c1c(C)cc(C3CC3)cc1C)=C2O` (single isomer, unassigned) [Example I-2-a-3] here?
Its logP is 2.64.

For `COC1CCC2(CC1)OC(=O)C(c1c(C)cc(C3CC3)cc1C)=C2O` (single isomer, unassigned) [Example I-2-a-4], which logP [1] is on record?
Its logP is 2.88.

Which “Summer wheat observed (%), 10 days after application” value (from here on “Summer wheat observed (%), 10 days”) (Summer wheat; 6.25 g of a.i./ha) does the source give for `CCc1cc(C)cc(C2CC2)c1C1=C(O)C(C)(C)NC1=O` [Example I-1-a-5] here?
Its value is 50%.

And the “Summer wheat observed (%), 28 days after application” value (shortened to “Summer wheat observed (%), 28 days”) (Summer wheat; 6.25 g of a.i./ha)?
Its value is 10%.

What about the “Summer wheat observed (%), 10 days” value (Summer wheat; 12.5 g of a.i./ha) of the same compound?
The value was 60%.

And the “Summer wheat observed (%), 28 days” value (Summer wheat; 12.5 g of a.i./ha)?
The value was 40%.

What about the “Summer wheat observed (%), 10 days” value (Summer wheat; 25 g of a.i./ha) of the same compound?
The value was 70%.

And the “Summer wheat observed (%), 28 days” value (Summer wheat; 25 g of a.i./ha)?
Its value is 60%.

And the “Summer wheat observed (%), 10 days” value (Summer wheat; 50 g of a.i./ha)?
Its value is 70%.

And the “Summer wheat observed (%), 28 days” value (Summer wheat; 50 g of a.i./ha)?
The value was 75%.

And the “Summer barley observed (%), 10 days after application” value (“Summer barley observed (%), 10 days” for short) (Summer barley; 12.5 g of a.i./ha)?
The value was 50%.

And the “Summer barley observed (%), 28 days after application” value (“Summer barley observed (%), 28 days” below) (Summer barley; 12.5 g of a.i./ha)?
The value was 15%.

And the “Summer barley observed (%), 10 days” value (Summer barley; 25 g of a.i./ha)?
The value was 70%.

And the “Summer barley observed (%), 28 days” value (Summer barley; 25 g of a.i./ha)?
Its value is 25%.

What about the “Summer barley observed (%), 10 days” value (Summer barley; 50 g of a.i./ha) of the same compound?
The value was 80%.

And the “Summer barley observed (%), 28 days” value (Summer barley; 50 g of a.i./ha)?
Its value is 40%.

For `COC1CCC2(CC1)NC(=O)C(c1c(C)cc(C)cc1C1CC1)=C2O` (centres unmarked) [Example I-1-a-7], which “Kill (%) after 6 d +AS + RME in each case 1000 ppm” value ([2]; + AS + RME in each case 1000 ppm) is on record?
Its value is 99%.

And the “Kill (%) after 6 d +AS 1000 ppm” value ([2]; + ammonium sulphate 1000 ppm)?
The value was 65%.

What about the “Kill (%) after 6 d +RME 1000 ppm” value ([2]; + rapeseed oil methyl ester 1000 ppm) of the same compound?
The value was 75%.

And the “Kill (%) after 6 d” value ([2]; no additive)?
The value was 55%.

What about the “Summer wheat observed (%)” value (Summer wheat; [5]) of the same compound?
The value was 30%.

And the “Summer wheat observed (%)” value (Summer wheat; [6])?
The value was 60%.

And the “Summer wheat observed (%)” value (Summer wheat; [7])?
The value was 70%.

What about the “Summer wheat observed (%)” value (Summer wheat; [10]) of the same compound?
The value was 80%.

And the “Summer barley observed (%)” value (Summer barley; [3])?
Its value is 10%.

What about the “Summer barley observed (%)” value (Summer barley; [4]) of the same compound?
The value was 50%.

And the “Summer barley observed (%)” value (Summer barley; [8])?
The value was 60%.

Which “Summer wheat observed (%)” value (Summer wheat; [4]) does the source give for `Cc1cc(C)c(C2=C(O)C(C)(C)NC2=O)c(C2CC2)c1` [Example I-1-a-8] here?
The value was 25%.

And the “Summer wheat observed (%)” value (Summer wheat; [8])?
Its value is 30%.

And the “Summer wheat observed (%)” value (Summer wheat; [9])?
The value was 30%.

What does the source list for `CCOC1CCCC2(CC1)NC(=O)C(c1c(C)cc(C)cc1C1CC1)=C2O` (centres unmarked) [Example I-1-a-9]?
Summer wheat observed (%) (Summer wheat; [3]): 60%; Summer wheat observed (%) (Summer wheat; [4]): 65%; Summer wheat observed (%) (Summer wheat; [6]): 50%

For `CCCCOC1CCCC2(C1)NC(=O)C(c1c(Cl)cc(C)cc1C1CC1)=C2O` (centres unmarked) [Example I-1-a-12], which “Summer wheat observed (%), 10 days” value (Summer wheat; 6.25 g of a.i./ha) is on record?
Its value is 10%.

What about the “Summer wheat observed (%), 10 days” value (Summer wheat; 12.5 g of a.i./ha) of the same compound?
Its value is 40%.

And the “Summer wheat observed (%), 10 days” value (Summer wheat; 25 g of a.i./ha)?
The value was 50%.

What about the “Summer wheat observed (%)” value (Summer wheat; 10 days after application, 6.25 g of a.i./ha) of the same compound?
The value was 30%.

And the “Summer wheat observed (%)” value (Summer wheat; [3])?
Its value is 50%.

What about the “Summer wheat observed (%)” value (Summer wheat; [4]) of the same compound?
The value was 60%.

And the “Summer wheat observed (%)” value (Summer wheat; [8])?
The value was 60%.

And the “Summer wheat observed (%)” value (Summer wheat; 28 days after application, 6.25 g of a.i./ha)?
Its value is 5%.

What about the “Summer wheat observed (%)” value (Summer wheat; [5]) of the same compound?
The value was 25%.

What about the “Summer wheat observed (%)” value (Summer wheat; [6]) of the same compound?
Its value is 65%.

And the “Summer wheat observed (%)” value (Summer wheat; [7])?
Its value is 65%.

Which results are given for `CCOC1CCCC2(C1)NC(=O)C(c1c(Cl)cc(C)cc1C1CC1)=C2O` (centres unmarked) [Example I-1-a-14]?
Summer wheat observed (%) (Summer wheat; [5]): 20%; Summer wheat observed (%) (Summer wheat; [6]): 50%; Summer wheat observed (%) (Summer wheat; [7]): 75%; Summer wheat observed (%) (Summer wheat; [10]): 85%; Summer barley observed (%) (Summer barley; [5]): 20%; Summer barley observed (%) (Summer barley; [6]): 60%; Summer barley observed (%) (Summer barley; [7]): 70%
